Assay results reported in ChEMBL document CHEMBL1135000, “Stereoselective and improved syntheses and anticancer testing of 3'-O-silatranylthymidines” (Bioorg Med Chem Lett, 2002).

Key:
[1] = test system: Human alphaherpesvirus 1; assay: Inhibition against herpes simplex virus type 1, measured by a cytopathic effect inhibition assay with human foreskin fibroblast (HFF)cells infected with HSV; Inactive; assay type: functional, organism-based; details: Human alphaherpesvirus 1, HFF
[2] = test system: Human alphaherpesvirus 2; assay: Inhibition against herpes simplex virus type 2, measured by a cytopathic effect inhibition assay with human foreskin fibroblast (HFF) cells infected with HSV; Inactive; assay type: functional, organism-based; details: Human alphaherpesvirus 2, HFF
[3] = test system: Hepatitis B virus; assay: Cytotoxicity when tested for inhibition against hepatitis B virus in HBV-producing human liver cell line 2.2.15; assay type: functional; details: HepG2 2.2.15
[4] = test system: Hepatitis B virus; assay: Effective concentration required for inhibition against hepatitis B virus in HBV-producing human liver cell line 2.2.15; assay type: functional, organism-based; details: HepG2 2.2.15

Row | EC50 [4] | SMILES | EC50 [1] | EC50 [2] | CC50 [3]
1 | – | Cc1cn([C@H]2C[C@H](O[Si]34OC(C)CN(CC(C)O3)CC(C)O4)[C@@H](CO)O2)c(=O)[nH]c1=O (some centres undefined) | > 100 µg/mL | > 100 µg/mL | –
2 | > 10 µM | Cc1cn([C@H]2C[C@H](O[Si]34OCCN(CCO3)CCO4)[C@@H](CO)O2)c(=O)[nH]c1=O | – | – | 1290 µM
